Assay results taken from patent US20120178682A1, “GB1 Peptidic Compounds and Methods for Making and Using the Same” (priority 2010, published 2012).
Bridge positions count the residues as written; N and C are the ends. Square brackets hold non-standard residues; d marks the D form. Ends that are not written are not given here.

Assays:
[1] = target: D-VEGF; assay: SPR affinity measurements of GB1 peptidic compounds on immobilized D-VEGF; type: binding; conditions: target D-VEGF
Procedure: VEGF binding compounds were expressed. Binding affinities were measured using the […] SPR system. SPR analysis was performed on a ProteOn XPR36 Protein Interaction Array System (BioRad). Chemically synthesized L-VEGF, D-VEGF and VEGF165 (Peprotech) were immobilized in 50 mM Sodium Acetate (pH 5.5) to a non-dilute EDAC/sulfo-NHS activated GLC surface on separate channels using a flow rate of […] for 5 minutes in the vertical direction. Immobilization levels were monitored to ensure immobilization of approximately 500 response units of each protein. The domains were then stabilized with PBS for 30 seconds and 0.85% H3PO4 for 18 seconds each at […]. GB1 variants were diluted in PBS plus 0.05% Tween 20 at a starting concentration of 200 nM. The binders were further diluted with PBST 2-fold in series to produce 5 concentrations of variants. A PBST blank was also included. GB1 variant injection parameters were: […], 60 seconds contact time, and 600 seconds dissociation time, in the horizontal direction. VEGF proteins were regenerated with an injection of 0.85% H3PO4 at a flow rate of […] followed by a PBST wash of 30 seconds at […] flow rate.

[2] = system: D-VEGF; assay: Competition assay (phage ELISA) with VEGF binding peptides v114 and v128a on D-VEGF; conditions: 100 μM peptide; anti-M13-HRP detection
Procedure: (§1) To test whether the D-VEGF and L-VEGF binders have the potential to block VEGF-VEGFR1 interaction, a competition assay was performed using VEGF binding peptides v114 and v128a described by Fairbrother et al. (“Novel peptides selected to bind vascular endothelial growth factor target the receptor-binding site,” Biochemistry, 1998, 37, 17754-64). These peptides block the binding of VEGF to VEGFR1 and inhibit angiogenesis.
(§2) The peptides v114 ([…]-NH2; SEQ ID NO:296) and v128a ([…]-NH2; SEQ ID NO:297) were prepared in both D- and L-forms (CSBio, Inc.). The following protocol was used in the competitive binding assays: • 1. 5 wells of NUNC 96 well maxisorb plate were coated with D-VEGF (5 μg/ml in PBS) for testing clone E01. Similarly 5 wells were coated with L-VEGF (5 μg/ml in PBS) for each of E01 and B03. The plate was incubated at room temperature with gentle shaking for 2 hours; • 2. The plates were blocked with PBS+0.2% BSA (5 wells+1 extra well for control) for 1 hr at room temperature with gentle shaking; • 3. In the meantime, peptides were diluted in PBT buffer to a concentration of 150 μM; • 4. The plate was washed four times with PT buffer; • 5. 66 μl of each diluted peptide was added to 4 different wells coated with L or D-VEGF (depending on the clone tested). 66 μl of PBT was added to control wells (1 VEGF coated well+1 control well). Incubate for 30 min at room temperature with shaking; • 6. Add 33 μl of fresh phage supernatant from overnight culture to each of the six wells containing peptide solution. Incubate for 15 min at room temperature with shaking. • 7. Wash plate 6 times with PT buffer; • 8. Add 66 μl of anti-M13-HRP antibody (1:3000 dilution in PBT) to each well and incubate for 30 min at room temperature with shaking; • 9. Wash plate 4 times with PT buffer. Develop and read plates at 450 nm.
Phage binding to L and D-VEGF was tested in the presence and absence of 100 μM of each peptide (e.g., at 100 times affinity to saturate VEGF) using anti-M13-HRP to detect the bound phage.

[3] = Melting temperature (Tm) by circular dichroism (CD); type: physicochemical; conditions: chemically synthesized compound; CD spectroscopy
Source text: 4.3 Determination of Melting Temperature (Tm) by Circular Dichroism (CD)

[4] = system: D-VEGF; assay: Phage ELISA after overnight incubation with GuHCl or urea; type: binding; conditions: various concentrations of urea or GuHCl; phage incubated overnight
Procedure: During screening for specific binding to target, the presence of a chaotropic agent/denaturant can help select clones with improved stability and affinity. Phage were incubated overnight in the presence of various concentrations of GuHCl and urea and assayed using an ELISA method. […] Various concentrations GuHCl were added to selection wells prior to elution with 100 mM HCl. The selected clones were identified by competitive ELISA and analyzed for IC50 using similar protocols to those described above.

[5] = target: T1, L-VEGF (Homo sapiens, UniProt P15692); assay: Competition assay (phage ELISA) with VEGF binding peptides v114 and v128a on L-VEGF; conditions: 100 μM peptide; anti-M13-HRP detection
T1 construct: Synthetic L-VEGF-A (8-109) was folded under the following conditions; made in house; host or cells: total chemical synthesis (SPPS plus native chemical ligation), no expression host
T1 sequence (P15692 214-315): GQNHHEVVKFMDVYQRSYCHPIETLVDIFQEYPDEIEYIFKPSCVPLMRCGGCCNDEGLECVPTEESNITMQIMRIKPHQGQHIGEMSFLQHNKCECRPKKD
Procedure: as §1
as §2, with “Incubate for 30 min at room temperature with shaking; • 6. Add 33 μl of fresh phage supernatant from overnight culture to each of the six wells containing peptide solution. Incubate for 15 min at room temperature with shaking. • 7. Wash plate 6 times with PT buffer; • 8. Add 66 μl of anti-M13-HRP antibody (1:3000 dilution in PBT) to each well and incubate for 30 min at room temperature with shaking; • 9. Wash plate 4 times with PT buffer.” left out, “nm. […]” for “nm.”

[6] = Table 2, GB1-E01 double mutants

E01: pre-affinity matured parent D-VEGF binding GB1 clone, SEQ ID NO:79 (TYKLILNGKTLKGETTTEAVDVYDAFDVFFVYAASNFSDFDDWTYDDATKTFTVTE) [Clone E01]
Kd ([1]; Table 1): 13.4 nM | Koff ([1]; Table 1): 0.00347 s⁻¹ | Kon ([1]; Table 1, E01 point mutants expressed in E. coli): 260000 M⁻¹ s⁻¹ | Kd [1, 6]: 3.46 nM | Koff [1, 6]: 0.00117 s⁻¹ | Kon [1, 6]: 338000 M⁻¹ s⁻¹ | phage binding to D-VEGF in the presence of D-v114 [2]: completely blocked | phage binding to D-VEGF in the presence of D-v128a [2]: partially blocked | phage binding to D-VEGF in the presence of L-peptides (L-v114, L-v128a) [2]: do not inhibit

TYKLILNGKTLKGEFTLEAVDLFDAFDVFFVYAASNFSFFDDWTYDDATKTFTVTE ([dT][dY][dK][dL][dI][dL][dN]G[dK][dT][dL][dK]G[dE][dF][dT][dL][dE][dA][dV][dD][dL][dF][dD][dA][dF][dD][dV][dF][dF][dV][dY][dA][dA][dS][dN][dF][dS][dF][dF][dD][dD][dW][dT][dY][dD][dD][dA][dT][dK][dT][dF][dT][dV][dT][dE]; not fully specified) [RFX025]
melting temperature (Tm) [3]: 66.6 °C | binding to D-VEGF in presence of denaturant [4]: bind specifically

TYKLILNGKTLKGETTTEAVDFYYAFSVFFSYASSNSSDYVSWTYDDATKTFTVTE [Clone B03]
phage binding to L-VEGF in the presence of D-peptides (D-v114, D-v128a) [5]: do not inhibit

TYKMILNGKTLKSECTTEAVDLFDAFDVLFVCAASNFSFIDDWTYDDATKTFTVTE ([dT][dY][dK][dM][dI][dL][dN]G[dK][dT][dL][dK][dS][dE][dC][dT][dT][dE][dA][dV][dD][dL][dF][dD][dA][dF][dD][dV][dL][dF][dV][dC][dA][dA][dS][dN][dF][dS][dF][dI][dD][dD][dW][dT][dY][dD][dD][dA][dT][dK][dT][dF][dT][dV][dT][dE]; disulfide 15-32 (inferred); not fully specified) [RFX002]
melting temperature (Tm) [3]: 66.9 °C | binding to D-VEGF in presence of denaturant [4]: bind specifically
